According to PMC6234871 (mBio, 2018):

Tests used:
[1] = molecular target: T1, PfHAD2 (HAD2, 6×His-HAD2) (Plasmodium falciparum, UniProt Q8I5F4); assay: EnzChek phosphate release assay (MESG/PNP coupled); format: biochemical; conditions: 5 mM substrate, 730 nM enzyme, 20 mM MgCl2, 50 mM Tris-HCl pH 8.0; normalised to D26A mutant
T1 construct: gene PF3D7_1226300; native mass about 33 kDa

[2] = molecular target: T1, PfHAD2 (HAD2, 6×His-HAD2); assay: continuous absorbance at […] nm; format: biochemical; conditions: 10 mM pNPP, 1.2 µM enzyme, 5 mM MgCl2, 50 mM Tris-HCl pH 7.5, 37°C

Compound	EnzChek phosphate release assay (MESG/PNP coupled) [1]	continuous absorbance at 405 nm [2]
O=P(O)(O)OC(CO)CO [glycerol 2-phosphate]	PfHAD2 is a phosphatase with activity against small phosphosubstrates, such as glc2P	
O=[N+]([O-])c1ccc(OP(=O)(O)O)cc1 [para-nitrophenyl phosphate]		confirmed the phosphatase activity of recombinant PfHAD2 using para-nitrophenyl phosphate (pNPP)
